Common to all, as to experiment: MTT assay, inhibitory activity against growth of cancer cells
Holding throughout (assay type): cell-based
(Tetrazolium dyes change colour on reduction, which living cells bring about.)

Experiment [1] deals with Human lung adenocarcinoma epithelial cell line A-549. To be noted: Dosage 5 μg/ml, 72 h incubation. The procedure:
(§1) The inhibitory activity of these chair ruthenium(II) complexes have been evaluated by MTT assay by using 5-fluorouracil (5-Fu) as positive control. Human hepatocarcinoma cell line Bel-7402, human intestinal adenocarcinoma cell line HCT-8 and Human lung adenocarcinoma epithelial cell line A-549 were supplied by the Institute of Materia Medica, Chinese Academy of Medical Sciences & Peking Union Medical College. The determination of the cytotoxicity (dark toxicity) of the compound was carried out in parallel with the phototoxicity determination following the same procedure, with the exclusion of the irradiation.
(§2) General method: Cells were diluted to 5000/ml by PRMI1640 minimal essential medium with 10% fetal calf serum (FCS), plated at 100 μl cells per well in a 96-well Corning microtiter plate, and incubated at 37° C. with 5% CO2 for 24 h. After cell was covered a single layer, drugs (10 μl) was added, and PRMI1640 minimal essential medium was supplied to make the total volume to 200 μl. After incubated for another 72 h at 37° C., 5% CO2, the medium was removed and freshly prepared MTT dissolved in DMSO (200 μl) was added, and the OD value was recorded on ELISA Reader at 544 nm. The inhibitory activity of ruthenium complexes was calculated according to equation: Inhibitory activity(%)=([…])/(ODcontrol−ODblank)×100%.

In experiment [2] the test system is human hepatocarcinoma cell line Bel-7402. The conditions noted are these: 72 h incubation. The procedure:
as §1, §2

Experiment [3] relates to human intestinal adenocarcinoma cell line HCT-8. The conditions noted are these: 72 h incubation. The procedure:
as §1, §2

Take `FC(F)(F)c1ccccc1-c1nc2c3ccc[n+]4c3c3c(ccc[n+]3[Ru-4]435([n+]4ccccc4-c4cccc[n+]43)[n+]3ccccc3-c3cccc[n+]35)c2[nH]1.F[P-](F)(F)(F)(F)F.F[P-](F)(F)(F)(F)F` [Δ-1, Δ-[Ru(bpy)2(tFPIP)](PF6)2]: in experiment [1], the “Inhibitory activity (%) A-549” value worked out at 62.0%. Besides, the “Inhibitory activity (%) BEL-7402” value was determined as 85.0% in experiment [2] (Dosage 5 μg/ml) and 88.3% in experiment [2] (Dosage 50 μg/ml). The figures for the “Inhibitory activity (%) HCT-8” value in experiment [3] (Dosage 5 μg/ml) and in experiment [3] (Dosage 50 μg/ml) were 81.6% and 86.2%, respectively.

On to `F[P-](F)(F)(F)(F)F.F[P-](F)(F)(F)(F)F.c1cc[n+]2c(c1)-c1cccc[n+]1[Ru-4]213([n+]2ccccc2-c2cccc[n+]21)[n+]1ccccc1-c1[nH]c2cc4ccccc4cc2[n+]13` [Δ-4, Δ-[Ru(bpy)2(PYNI)](PF6)2], for which the “Inhibitory activity (%) A-549” value in experiment [1] is −8.2%. Moreover, the “Inhibitory activity (%) BEL-7402” value was 2.8% in experiment [2] (Dosage 5 μg/ml) and 36.0% in experiment [2] (Dosage 50 μg/ml). The “Inhibitory activity (%) HCT-8” value in experiment [3] (Dosage 5 μg/ml) turned out to be 1.8%; in experiment [3] (Dosage 50 μg/ml) it was 38.6%.

As to `FC(F)(F)c1ccccc1-c1nc2c3ccc[n+]4c3c3c(ccc[n+]3[Ru-4]435([n+]4ccccc4-c4cccc[n+]43)[n+]3ccccc3-c3cccc[n+]35)c2[nH]1.F[P-](F)(F)(F)(F)F.F[P-](F)(F)(F)(F)F` [Λ-1, Λ-[Ru(bpy)2(tFPIP)](PF6)2], the “Inhibitory activity (%) A-549” value in experiment [1] is 56.4%. Besides, the figures for the “Inhibitory activity (%) BEL-7402” value in experiment [2] (Dosage 5 μg/ml) and in experiment [2] (Dosage 50 μg/ml) were 85.2% and 88.8%, respectively. For the same compound, the “Inhibitory activity (%) HCT-8” value in experiment [3] (Dosage 5 μg/ml) came out at 83.0%; in experiment [3] (Dosage 50 μg/ml), 88.9%.

`F[P-](F)(F)(F)(F)F.F[P-](F)(F)(F)(F)F.c1cc[n+]2c(c1)-c1cccc[n+]1[Ru-4]213([n+]2ccccc2-c2cccc[n+]21)[n+]1cccc2c4nc(-c5ccc6c(c5)OCCO6)[nH]c4c4ccc[n+]3c4c21` [Λ-3, Λ-[Ru(bpy)2(IPBH)](PF6)2]: the “Inhibitory activity (%) A-549” value in experiment [1] is reported as −0.92%. The “Inhibitory activity (%) BEL-7402” value is listed as 3.0% in experiment [2] (Dosage 5 μg/ml) and 44.3% in experiment [2] (Dosage 50 μg/ml). The “Inhibitory activity (%) HCT-8” value in experiment [3] (Dosage 5 μg/ml) stood at 2.1%; in experiment [3] (Dosage 50 μg/ml), 39.1%.

Regarding `F[P-](F)(F)(F)(F)F.F[P-](F)(F)(F)(F)F.c1cc[n+]2c(c1)-c1cccc[n+]1[Ru-4]213([n+]2ccccc2-c2cccc[n+]21)[n+]1ccccc1-c1[nH]c2cc4ccccc4cc2[n+]13` [Λ-4, Λ-[Ru(bpy)2(PYNI)](PF6)2], the “Inhibitory activity (%) A-549” value in experiment [1] is reported as −2.3%. Further, the “Inhibitory activity (%) BEL-7402” value in experiment [2] (Dosage 5 μg/ml) amounted to 4.4%; in experiment [2] (Dosage 50 μg/ml), 22.6%. Further, the “Inhibitory activity (%) HCT-8” value in experiment [3] (Dosage 5 μg/ml) is reported as 3.6%; in experiment [3] (Dosage 50 μg/ml) it was 21.4%.

Turning to Δ-[Ru(bpy)2(IPBP)](PF6)2 [Δ-2], in experiment [1], the “Inhibitory activity (%) A-549” value amounted to 18.5%. The “Inhibitory activity (%) BEL-7402” value in experiment [2] (Dosage 5 μg/ml) stood at 9.6%; in experiment [2] (Dosage 50 μg/ml), 86.8%. For the same compound, the “Inhibitory activity (%) HCT-8” value is recorded as 13.1% in experiment [3] (Dosage 5 μg/ml) and 83.4% in experiment [3] (Dosage 50 μg/ml).

Λ-[Ru(bpy)2(IPBP)](PF6)2 [Λ-2]: the “Inhibitory activity (%) A-549” value in experiment [1] was −0.52%. In addition, the “Inhibitory activity (%) BEL-7402” value came to 0.19% in experiment [2] (Dosage 5 μg/ml) and 64.9% in experiment [2] (Dosage 50 μg/ml). Besides, the “Inhibitory activity (%) HCT-8” value is 2.23% in experiment [3] (Dosage 5 μg/ml) and 53.7% in experiment [3] (Dosage 50 μg/ml).

For the origin of these results see patent US8357678B2, “Chair ruthenium complexes and their use as anticancer agents” (Guangdong Pharmaceutical University, priority 2007, dated 2013).
